# Measurements taken from patent publication US11123408B2, “Compositions and methods for treating nonsteroidal anti-inflammatory drug (NSAID) associated coagulopathy, thrombocytopenia, glanzmann's thrombasthenia, and/or thrombosis” (YALE UNIVERSITY, priority 2011, dated 2021).
# “Also recorded” adds a separate entry of the source.
# B1: NPP4-T70A: inactive mutant NPP4 extracellular domain, catalytic threonine 70 mutated to alanine (protein, UniProt Q9Y6X5 16-407, looked up, variant T70A)
# extracellular domain: FRSDSSSSLPPKLLLVSFDGFRADYLKNYEFPHLQNFIKEGVLVEHVKNVFITKAFPNHYSIVTGLYEESHGIVANSMYDAVTKKHFSDSNDKDPFWWNEAVPIWVTNQLQENRSSAAAMWPGTDVPIHDTISSYFMNYNSSVSFEERLNNITMWLNNSNPPVTFATLYWEEPDASGHKYGPEDKENMSRVLKKIDDLIGDLVQRLKMLGLWENLNVIITSDHGMTQCSQDRLINLDSCIDHSYYTLIDLSPVAAILPKINRTEVYNKLKNCSPHMNVYLKEDIPNRFYYQHNDRIQPIILVADEGWTIVLNESSQKLGDHGYDNSLPSMHPFLAAHGPAFHKGYKHSTINIVDIYPMMCHILGLKPHPNNGTFGHTKCLLVDQWCINLPEA
# modifications: extracellular domain
# Assays:
# [1] = test system: platelets in platelet rich plasma; assay: Light transmission aggregometry (LTA) in platelet rich plasma; type: cell-based, human; settings: for inhibition of NPP4/Ap3A-promoted platelet aggregation (qualitative): increasing antagonist concentrations; for platelet aggregation response of enzyme in the presence of 80 μM Ap3A (qualitative): enzyme 50-200 nM
# Experimental: (§1) Whole blood from healthy voluntary donors was collected in accordance with an IRB-approved protocol into blue top vacutainer tubes containing 3.2% sodium citrate. Blood was centrifuged at 1000 RPM for 10 minutes at room temperature to collect platelet rich plasma (PRP). PRP in the supernatant was then transferred to fresh tubes, and the remainder of the specimen was centrifuged at 4000 RPM for 10 minutes to obtain platelet poor plasma (PPP). PRP was adjusted to a final platelet count of 250×10^6 platelets/mL with autologous PPP for use in aggregation studies. Potential donors were excluded if there was a history of a bleeding disorder or current anticoagulant use and donors were instructed to avoid NSAIDs for at least 7 days prior to donation. Approval for the human subjects involved in this research was sought and granted by the Committee for the Protection of Human Subjects, Dartmouth-Hitchcock Medical Center, where these studies were conducted in accordance with the Declaration of Helsinki.
# (§2) Light transmission (i.e., optical) and lumi aggregometry were performed on up to four samples from the same individual simultaneously with a Chrono-Log Model 700 Whole Blood/Optical Lumi Aggregometer (Chrono-Log Corporation, Havertown, Pa.) using procedures provided by the manufacturer that are briefly summarized here.
# (§3) Platelet aggregation was determined by measuring the change in light transmittance of stirred PRP over time after addition of various agonists. Prior to each experiment the aggregometer was standardized to reflect 100% and 0% light transmittance with PPP and PRP, respectively, from the donor whose platelets were used in each specific experiment. 500 μL PRP was added to cuvettes containing a magnetic stir bar and allowed to pre-warm to 37° C. in the aggregometer wells for 3 minutes prior to initiating aggregation reactions which were then conducted at 37° C. Aggregation reactions were initiated by direct addition of agonists and/or enzymes to warmed, stirred PRP, and were monitored for an increase in light transmittance for 10 minutes. The increase in light transmittance is directly proportional to the amount of aggregation and is amplified and digitized into a computer (HP Compaq, Hewlett-Packard, Palo Alto, Calif.) with the AGGRO/LINK8 for Windows software (Chrono-Log Corporation, Havertown, Pa.) to generate aggregation curves. […] The platelet aggregometry experiments for all concentrations of MRS 2395 (including the 0 μM point) were conducted with the plasma adjusted to a final concentration of 10% DMSO to solubilize the inhibitor.
# [2] = test system: platelets in platelet rich plasma; assay: Lumi aggregometry (extracellular ATP, dense granule release) simultaneously with LTA; type: cell-based, human
# Experimental: as §1, §2, §3
# In a subgroup of experiments, lumi aggregometry was used to assay the levels of extracellular ATP simultaneously with LTA. Lumi aggregometry measures ATP in the extracellular space over time using a sensitive luminescent assay employing firefly luciferin-luciferase (CHRONO-LUME™ reagent, Chrono-Log Corporation, Havertown, Pa.). ATP binds to luciferin-luciferase and generates light that is then amplified by a high-gain photomultiplier tube in the lumi aggregometer and is measured simultaneously with the optical change in light transmittance caused by platelet aggregation. In experiments in which lumi aggregometry was performed, 450 μL of PRP was transferred to cuvettes containing magnetic stir bars and allowed to pre-warm to 37° C. in the aggregometer wells for 3 minutes. […] Reactions were initiated by the addition of agonists and/or enzymes to warmed PRP and CHRONOLUME′ reagent and were monitored for light generation. […]
# [3] = Ap3A hydrolysis by NPP enzymes (linked malachite green assay, absorbance change at 259 nm, HPLC); type: biochemical; settings: linked assay or steady state enzymatic studies
# Experimental: (§4) NPP4 nucleotide substrates were identified by directly detecting the free phosphate (Pi) product using malachite green (ADP substrate) or by a linked hydrolysis assay with alkaline phosphatase combined with malachite green (lipid substrates and nucleotide substrates without terminal P1) to measure released Pi. 50 μM substrate P1 equivalents (e.g. 25 μM ADP) were treated with 50 nM NPP4 for 1 hr 37 min (lipids) or 3 hr 15 min (all other substrates). For substrates without terminal phosphates, 10 units of calf intestinal alkaline phosphatase (M0290S, 10,000 units/mL, New England Biolabs, Ipswich, Mass.) was added for a final reaction volume of 50 μL. 100 μL of malachite green (BIOMOL GREEN™, Enzo Life Sciences, Plymouth Meeting, Pa.) was added to quench the reactions. The amount of phosphate released was measured by absorbance at 620 nm by a Biotek Synergy Mx plate reader (Winooski, Vt.) in 96-well plates (3679, Corning Inc., Corning, N.Y.) and compared against a phosphate standard curve.
# The kinetics of the steady state Ap3A/Ap4A cleavage by NPP4 was measured from time courses of absorbance change at 259 nm using a UV spectrophotometer with a 0.1 cm optical path length cuvette or a stopped-flow device with a 0.2 cm optical path length cell. The enzymology reactions in 50 mM Tris pH 8.0, 140 mM NaCl, 5 mM KCl, 1 mM MgCl2 and 1 mM CaCl2 were started by addition of 1 μM NPP4 to varying concentrations of Ap3A/Ap4A (up to 800 μM) solution (UV spectrophotometer) or by rapid mixing of NPP4 and Ap3A/Ap4A (stopped-flow). The substrate concentrations higher than 800 μM have absorption too high to be measured by a UV spectrophotometer and stopped-flow, and were therefore measured by HPLC. […] Therefore, the rate of a product production or enzyme turnover measured by the absorption change assay can be calculated by the rate of absorption change
# [formula] according to the following formula;
# [formula] where Δl is optical path length. The following absorption coefficients were used: Ap3A: 25.75 mM^−1 cm^−1. Ap4A: 25.4 mM^−1 cm^−1. AMP, ADP, and ATP: 15.4 mM^−1 cm^−1. ADP Receptor Inhibitor Assay for NPP4 Inhibition
# The HPLC protocol used to measure Ap3A/Ap4A cleavage by NPP4 and for product identification is modified from that of Stocchi et al. (1985, Anal Biochem 146:118-24). The reactions containing varying concentrations of Ap3A/Ap4A in the same buffer as in the absorbance change assay were started by addition of 0.2-1 μM NPP4 and quenched at various time points by equal volume of 3 M formic acid, or 0.5 N KOH and re-acidified by glacial acetic acid to pH 6. The quenched reaction solution was diluted systematically and loaded a HPLC system (Waters, Milford Mass.) and substrates and products were monitored by UV absorbance at 254 or 259 nm. Substrates and products were separated on a C18, 5 μm 250×4.6 mm HPLC column (Higgins Analytical, Mountain View, Calif.), using 15 mM ammonium acetate pH 6.0 solution, with a 0% to 10% (or 20%) methanol gradient. The products and substrate were quantified according to the integration of their correspondent peaks and the formula:
# [formula] where [substrate]0 is the initial substrate concentration. The extinction coefficients of Ap3A, Ap4A, AMP, ADP and ATP used in the formula were the same as those used in absorption change assay. If monitoring at 254 nm, substrate and product standards run on the same day as the reactions were used to convert integrated product/substrate peak areas to concentrations. […]
# [4] = Diadenosine polyphosphate cleavage (linked assay, HPLC, absorbance); type: biochemical; settings: HPLC or absorbance / real time spectrophotometric assay
# Experimental: as §4, with “100 μL of malachite green (BIOMOL GREEN™, Enzo Life Sciences, Plymouth Meeting, Pa.) was added to quench the reactions.” left out
# The kinetics of the steady state Ap3A/Ap4A cleavage by NPP4 was measured from time courses of absorbance change at 259 nm using a UV spectrophotometer with a 0.1 cm optical path length cuvette or a stopped-flow device with a 0.2 cm optical path length cell. […] The substrate concentrations higher than 800 μM have absorption too high to be measured by a UV spectrophotometer and stopped-flow, and were therefore measured by HPLC. […]
molecule,measurement,setting,value
Nc1ncnc2c1ncn2[C@@H]1O[C@H](COP(=O)(O)OP(=O)(O)OP(=O)(O)OP(=O)(O)OC[C@H]2O[C@@H](n3cnc4c(N)ncnc43)[C@H](O)[C@@H]2O)[C@@H](O)[C@H]1O [Ap4A],effect of Ap4A on Ap3A/NPP4-induced platelet aggregation,[1]; 80 μM Ap4A added to 100 nM NPP4 and 80 μM Ap3A,roughly half of the aggregation; also recorded: intermediate degree of platelet aggregation
same,platelet aggregation response to Ap4A (qualitative),[1]; 80 μM Ap4A alone or in the presence of 100 nM NPP4,no apparent positive effect on aggregation; also recorded: does not trigger even a primary wave of aggregation
same,"platelet aggregation and granule release, Ap4A with NPP4 (qualitative)",[2]; 40 μM Ap4A with 100 nM NPP4,no measurable platelet aggregation; also recorded: no platelet aggregation and no granule release
CNc1ncnc2c1ncn2[C@H]1C[C@H](OP(=O)(O)O)[C@@H](COP(=O)(O)O)O1 [MRS 2179],inhibition of NPP4/Ap3A-promoted platelet aggregation (qualitative),"[1]; 50 nM NPP4, 80 μM Ap3A",concentration-dependent inhibition of platelet aggregation; also recorded: dose-dependent inhibition of the platelet aggregation response
CNc1nc(Cl)nc2c1ncn2CC(COC(=O)C(C)(C)C)COC(=O)C(C)(C)C [MRS 2395],inhibition of NPP4/Ap3A-promoted platelet aggregation (qualitative),"[1]; 50 nM NPP4, 80 μM Ap3A",concentration-dependent inhibition of platelet aggregation; also recorded: dose-dependent inhibition of the platelet aggregation response
same,inhibition of NPP4/Ap3A-promoted platelet aggregation at 200 μM,"[1]; 200 μM antagonist, 50 nM NPP4, 80 μM Ap3A, 10% DMSO",complete inhibition
diadenosine triphosphate [Ap3A],platelet aggregation response to Ap3A in the presence of 100 nM NPP4 (qualitative),"[1]; 100 nM NPP4, dose response of Ap3A",induces both the primary and secondary waves of aggregation in a concentration-dependent fashion; also recorded: robust platelet aggregation
same,maximum aggregation,[1]; 40 μM Ap3A in the presence of 100 nM NPP4,70%
same,maximum aggregation,[1]; Ap3A 80 μM or higher in the presence of 100 nM NPP4,greater than 80%
same,"platelet aggregation response, agent alone (qualitative)",[1]; agent alone in PRP (Ap3A up to 160 μM; NPP4 100 nM),"triggers a primary wave of aggregation without degranulation, followed by rapid disaggregation; also recorded: only a primary wave of aggregation followed by rapid platelet disaggregation; also recorded: triggers a primary wave of aggregation, which is followed by rapid disaggregation"
same,"platelet aggregation and luminescence, Ap3A alone (qualitative)",[2]; 40 μM Ap3A alone in PRP,"primary wave of aggregation, followed by rapid disaggregation"
B1,Ap3A cleavage / hydrolysis (qualitative),[3],incapable of Ap3A hydrolysis
same,diadenosine polyphosphate cleavage (qualitative),[4],did not cleave diadenosine polyphosphates
same,platelet aggregation response of enzyme in the presence of 80 μM Ap3A (qualitative),[1],fails to induce aggregation
same,platelet aggregation response of enzyme in the presence of 80 μM Ap3A (qualitative),[1]; listed as T70A mutant of NPP4,no effect on platelet aggregation
same,"platelet aggregation and dense granule (ATP) release, enzyme with Ap3A (qualitative)",[2]; 100 nM enzyme with 40 μM Ap3A,A similar pattern is observed
